Experimental data: PubChem BioAssay (NCI)
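1) Cells in 96-well plates. 2) Compound, 48 h, 5 concentrations. 3) Linear interpolation between surrounding doses. 4) Unreached endpoint = highest concentration. Definition used: TGI = concentration required for complete inhibition of growth.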

Experiments:
Test in all cases: NCI anticancer screen, dose series, 48 h
786-0 renal = test system: 786-0 renal
ACHN renal = test system: ACHN renal
CAKI-1 renal = test system: CAKI-1 renal
COLO 205 colon = test system: COLO 205 colon
EKVX NSCLC = test system: EKVX NSCLC
HCC-2998 colon = test system: HCC-2998 colon
HCT-116 colon = test system: HCT-116 colon
HT29 colon = test system: HT29 colon
LOX IMVI melanoma = test system: LOX IMVI melanoma
OVCAR-3 ovarian = test system: OVCAR-3 ovarian
SF-268 CNS = test system: SF-268 CNS
SF-295 CNS = test system: SF-295 CNS
SK-MEL-28 melanoma = test system: SK-MEL-28 melanoma
SNB-75 CNS = test system: SNB-75 CNS
SR leukemia = test system: SR leukemia
UO-31 renal = test system: UO-31 renal
NCI-H226 lung = test system: NCI-H226 lung
RXF 393 renal = test system: RXF 393 renal
MDA-MB-435 = test system: MDA-MB-435

Structure (SMILES)	TGI (786-0 renal)	TGI (ACHN renal)	TGI (CAKI-1 renal)	TGI (COLO 205 colon)	TGI (EKVX NSCLC)	TGI (HCC-2998 colon)	TGI (HCT-116 colon)	TGI (HT29 colon)	TGI (LOX IMVI melanoma)	TGI (OVCAR-3 ovarian)	TGI (SF-268 CNS)	TGI (SF-295 CNS)	TGI (SK-MEL-28 melanoma)	TGI (SNB-75 CNS)	TGI (SR leukemia)	TGI (UO-31 renal)	TGI (NCI-H226 lung)	TGI (RXF 393 renal)	TGI (MDA-MB-435)
NC(=O)N/N=C(/Cc1nc2ccc(C(=O)c3ccccc3)cc2[nH]c1=O)C(=O)Nc1ccc(C(F)(F)F)cc1[N+](=O)[O-]	> 100 µM	> 100 µM	> 100 µM	> 100 µM	> 100 µM	> 100 µM	> 100 µM	> 100 µM	> 100 µM	> 100 µM	> 100 µM	> 100 µM	> 100 µM	97.3 µM	> 100 µM	> 100 µM			
Cc1cc(=O)[nH]c(NNC(C#N)c2c(O)ccc3ccccc23)n1 (centres undefined)	79.8 µM	13 µM	22 µM	57 µM			17.1 µM	88.4 µM	22.4 µM	43.1 µM	40.7 µM	> 100 µM	68.3 µM	55.9 µM	26.3 µM	9.92 µM	17.6 µM	23.6 µM	
O=S(=O)(c1ccccc1)n1cc(C[P+](c2ccccc2)(c2ccccc2)c2ccccc2)c2ccccc21	16.3 µM	28.7 µM	26.9 µM	4.78 µM	15.8 µM	15.7 µM	15.2 µM	13.4 µM	13.6 µM	13.5 µM	18.6 µM	24.3 µM	14.2 µM	12.6 µM	31.6 µM	13.1 µM	18.1 µM	20.3 µM	
COC(=O)C1=CN(C2CCCCC2)C2(c3ccccc3)c3ccccc3C(=O)OC(=O)C12 (centres undefined)	> 100 µM	> 100 µM	> 100 µM	> 100 µM	> 100 µM	> 100 µM	> 100 µM	> 100 µM	> 100 µM	> 100 µM	> 100 µM	> 100 µM	> 100 µM	> 100 µM		> 100 µM	> 100 µM	97.2 µM	> 100 µM
Cc1cnc2c(c1)C(=O)C1=C(OC(C)(C)CC1O)C2=O (centres undefined)	28.2 µM	29 µM		32.4 µM	36.4 µM	32.9 µM	27.9 µM	43.6 µM	25.8 µM	23.4 µM	37.2 µM	26.6 µM	31.1 µM	28.5 µM	> 100 µM	29.7 µM	37.5 µM	29.3 µM	
[O-][N+]1=NC(c2ccccc2)=C1c1ccccc1	> 50 µM	> 50 µM	> 50 µM	> 50 µM	> 50 µM		> 50 µM	> 50 µM	> 50 µM	> 50 µM	> 50 µM	> 50 µM	> 50 µM	> 50 µM		> 50 µM	> 50 µM	> 50 µM	> 50 µM
C[C@@H]1C2=CC[C@@]3(C)C(CCC3[C@H](C)[C@H]3C[C@@]4(C)O[C@@](c5cccnc5)(O3)OC4(C)C)[C@@H]2C2OC2[C@@]12CCC(=O)O2 (some centres undefined)	> 100 µM	> 100 µM	79.6 µM	77.2 µM		> 100 µM	> 100 µM	> 100 µM	> 100 µM	85.9 µM	> 100 µM	> 100 µM	> 100 µM	> 100 µM	> 100 µM	97.1 µM			
O=C(Nc1cc(Cl)cc(Cl)c1)/C(Cc1nc2ccccc2[nH]c1=O)=N/NC(=O)c1ccncc1	> 100 µM	> 100 µM	> 100 µM	> 100 µM	> 100 µM	> 100 µM	> 100 µM		> 100 µM	> 100 µM		> 100 µM				> 100 µM			
CC(=O)C(CN(C)C)C(c1ccccc1)c1c(O)c2ccccc2oc1=O (centres undefined)	> 100 µM	> 100 µM	> 100 µM	> 100 µM	> 100 µM	> 100 µM	> 100 µM	> 100 µM	> 100 µM	> 100 µM	> 100 µM	> 100 µM	> 100 µM	88.5 µM	> 100 µM		> 100 µM	> 100 µM	
CSc1nc(NC2OC(COC(C)=O)C(OC(C)=O)C(OC(C)=O)C2OC(C)=O)c(-c2csc(N)n2)c(=O)n1C (centres undefined)	39.4 µM	> 100 µM	> 100 µM	> 100 µM			> 100 µM	> 100 µM	> 100 µM	> 100 µM	> 100 µM	> 100 µM	> 100 µM	47.8 µM	> 100 µM	> 100 µM	81.7 µM		
CC1(S)CC2C(CC1Sc1ccccc1)C2(C)C (centres undefined)	> 100 µM	> 100 µM		> 100 µM	> 100 µM	> 100 µM	> 100 µM	> 100 µM		> 100 µM	> 100 µM	> 100 µM	> 100 µM	> 100 µM		> 100 µM	> 100 µM		
Cc1c(N/C=C(\C#N)C(=O)c2ccc(Cl)cc2)c(=O)n(-c2ccccc2)n1C	> 100 µM		> 100 µM	> 100 µM	> 100 µM	> 100 µM	> 100 µM		> 100 µM	> 100 µM		> 100 µM	> 100 µM	> 100 µM		> 100 µM	> 100 µM	> 100 µM	> 100 µM
